Source: patent US6365585B1, “Phosphodiesterase IV-inhibiting diazepinoindoles” (Warner-Lambert Company, priority 1998, dated 2002)

Assays:
[1] = Metabolism in vitro of MPTDI, human hepatic microsomes (HPLC-MS profile); type: in vitro ADME; details: incubation of MPTDI with human hepatic microsomes
Protocol: (§1) The profile and the identification of the metabolites of MPTDI were obtained after incubation of the product with human hepatic microsomes. The results were compared with those obtained on rat hepatic microsomes. The metabolic profiles obtained by HPLC coupled to a mass spectrometer in these two species are represented in FIG. 1. In some cases, the mass spectra obtained were compared with those of reference substances synthesized by the chemical route. It is deduced therefrom that the profiles obtained on human and rat microsomes are similar: Table 1 collates the measured proportions of the metabolites for these two species.

[2] = Metabolism in vitro of MPTDI, rat hepatic microsomes (HPLC-MS profile); type: in vitro ADME; details: incubation of MPTDI with rat hepatic microsomes
Protocol: as §1

SMILES: Cc1cc2c3c(c1)C(c1ccccc1)=N[C@@H](NC(=O)c1ccncc1)C(=O)N3CC2 [MPTDI, (3R)-N-(9-methyl-4-oxo-1-phenyl-3,4,6,7-tetrahydro[1,4]diazepino[6,7,1-hi]indol-3-yl)isonicotinamide, reference compound]
- Proportions (%) of the metabolites obtained on human hepatic microsomes [1]: 79%
- Proportions (%) of the metabolites obtained on rat hepatic microsomes [2]: 38.2%

SMILES: O=C(NC1N=C(c2ccccc2)c2cc(CO)cc3c2N(CC3)C1=O)c1ccncc1 (centres unmarked) [OH on 9-CH3, N-(9-hydroxymethyl-4-oxo-1-phenyl-3,4,6,7-tetrahydro[1,4]diazepino[6,7,1-hi]indol-3-yl)isonicotinamide]
- melting point: 260 °C
- Proportions (%) of the metabolites obtained on human hepatic microsomes [1]: 4.2%
- Proportions (%) of the metabolites obtained on rat hepatic microsomes [2]: 24.3%
